Assay results reported in patent publication US8952024B2, “Herbicidal pyrimidone derivatives” (E I du Pont de Nemours and Company, priority 2009, dated 2015).

How the values were obtained:
Assay type in all cases: in vivo
[1] = system: barnyardgrass (Echinochloa crus-galli); experiment: Test A pre-/postemergence plant response
Description: (§1) Seeds of barnyardgrass (Echinochloa crus-galli), large crabgrass (Digitaria sanguinalis), giant foxtail (Setaria faberii), morningglory (Ipomoea spp.), pigweed (Amaranthus retroflexus), velvetleaf (Abutilon theophrasti), wheat (Triticum aestivum) and corn (Zea mays) were planted into a blend of loam soil and sand and treated preemergence with a directed soil spray using test chemicals formulated in a non-phytotoxic solvent mixture which included a surfactant. At the same time these species were also treated with postemergence applications of test compounds formulated in the same manner.
(§2) Plants ranged in height from two to ten cm and were in the one- to two-leaf stage for the postemergence treatment. Treated plants and untreated controls were maintained in a greenhouse for approximately ten days, after which time all treated plants were compared to untreated controls and visually evaluated for injury. Plant response ratings, summarized in Table A, are based on a 0 to 100 scale where 0 is no effect and 100 is complete control. A dash (-) response means no test result.

corn (Zea mays) = experiment: Test A pre-/postemergence plant response
Description: as §1, §2

[2] = system: giant foxtail (Setaria faberii); experiment: Test A pre-/postemergence plant response
Description: as §1, §2

[3] = system: large crabgrass (Digitaria sanguinalis); experiment: Test A pre-/postemergence plant response
Description: as §1, §2

[4] = system: morningglory (Ipomoea spp.); experiment: Test A pre-/postemergence plant response
Description: as §1, §2

[5] = system: pigweed (Amaranthus retroflexus); experiment: Test A pre-/postemergence plant response
Description: as §1, §2

[6] = system: velvetleaf (Abutilon theophrasti); experiment: Test A pre-/postemergence plant response
Description: as §1, §2

[7] = system: wheat (Triticum aestivum); experiment: Test A pre-/postemergence plant response
Description: as §1, §2

[8] = system: barnyardgrass (Echinochloa crus-galli); experiment: Test B flooded paddy test; conditions: for Plant response rating, Flood, Barnyardgrass: 250 g ai/ha, flooded paddy test, visual rating on 0 to 100 scale (0 no effect, 100 complete control) after 13 to 15 days; for Plant response rating, Barnyardgrass: Flood (flooded paddy test), 13 to 15 days; for Barnyardgrass plant response rating: Flood, 31 g ai/ha, scale 0 to 100 (0 no effect, 100 complete control)
Description: (§3) Plant species in the flooded paddy test consisted of rice (Oryza sativa), umbrella sedge (Cyperus difformis), ducksalad (Heteranthera limosa) and barnyardgrass (Echinochloa crus-galli) grown to the 2-leaf stage for testing. At the time of treatment, test pots were flooded with water to 3 cm above the soil surface, treated by application of test compounds directly to the paddy water, and then maintained at that water depth for the duration of the test.
(§4) Treated plants and controls were maintained in a greenhouse for 13 to 15 days, after which time all treated plants were visually evaluated and compared to controls. Plant response ratings, summarized in Table B, are based on a scale of 0 to 100 where 0 is no effect and 100 is complete control. A dash (-) response means no test result.

[9] = system: ducksalad (Heteranthera limosa); experiment: Test B flooded paddy test; conditions: for Plant response rating, Flood, Ducksalad: 250 g ai/ha, flooded paddy test, visual rating on 0 to 100 scale (0 no effect, 100 complete control) after 13 to 15 days; for Plant response rating, Ducksalad: Flood (flooded paddy test), 13 to 15 days; for Ducksalad plant response rating: Flood, 31 g ai/ha, scale 0 to 100 (0 no effect, 100 complete control)
Description: as §3, §4

rice (Oryza sativa) = experiment: Test B flooded paddy test; conditions: for Plant response rating, Flood, Rice: 250 g ai/ha, flooded paddy test, visual rating on 0 to 100 scale (0 no effect, 100 complete control) after 13 to 15 days; for Plant response rating, Rice: Flood (flooded paddy test), 13 to 15 days; for Rice plant response rating: Flood, 31 g ai/ha, scale 0 to 100 (0 no effect, 100 complete control)
Description: as §3, §4

[10] = system: umbrella sedge (Cyperus difformis); experiment: Test B flooded paddy test; conditions: for Plant response rating, Flood, Sedge, Umbrella: 250 g ai/ha, flooded paddy test, visual rating on 0 to 100 scale (0 no effect, 100 complete control) after 13 to 15 days; for Plant response rating, Sedge, Umbrella: Flood (flooded paddy test), 13 to 15 days; for Sedge, Umbrella plant response rating: Flood, 31 g ai/ha, scale 0 to 100 (0 no effect, 100 complete control)
Description: as §3, §4

[11] = Postemergence, 125 g ai/ha, 0 to 100 scale where 0 is no effect and 100 is complete control
[12] = Postemergence, 500 g ai/ha, 0 to 100 scale, 0 = no effect, 100 = complete control, approx. ten days
[13] = Preemergence, 125 g ai/ha, 0 to 100 scale, 0 = no effect, 100 = complete control
[14] = Preemergence, 500 g ai/ha, visual injury, 0 to 100 scale (0 no effect, 100 complete control), approx. ten days
[15] = 62 g ai/ha, scale of 0 to 100 where 0 is no effect and 100 is complete control
[16] = 125 g ai/ha, scale 0 to 100, 0 is no effect, 100 is complete control
[17] = Postemergence, 500 g ai/ha, visual injury, 0 to 100 scale (0 no effect, 100 complete control), approx. ten days
[18] = Preemergence, 500 g ai/ha, 0 to 100 scale, 0 = no effect, 100 = complete control

SMILES: CCCCn1c(-c2cccc(C)c2)ncc(C(=O)C2=C(O)CCCC2=O)c1=O [Compound 116]
- Plant response rating, Barnyardgrass [1, 11]: 80
- Plant response rating, Barnyardgrass [1, 12]: 100
- Plant response rating, Barnyardgrass [1, 13]: 10
- Plant response rating, Barnyardgrass [1, 14]: 70
- Plant response rating, Corn (corn (Zea mays); [11]): 0
- Plant response rating, Corn (corn (Zea mays); [12]): 10
- Plant response rating, Corn (corn (Zea mays); [13]): 0
- Plant response rating, Corn (corn (Zea mays); [14]): 0
- Plant response rating, Foxtail, Giant [2, 11]: 60
- Plant response rating, Foxtail, Giant [2, 12]: 90
- Plant response rating, Foxtail, Giant [2, 13]: 10
- Plant response rating, Foxtail, Giant [2, 14]: 60
- Plant response rating, Crabgrass, Large [3, 11]: 60
- Plant response rating, Crabgrass, Large [3, 12]: 80
- Plant response rating, Crabgrass, Large [3, 13]: 30
- Plant response rating, Crabgrass, Large [3, 14]: 70
- Plant response rating, Morningglory [4, 11]: 100
- Plant response rating, Morningglory [4, 12]: 100
- Plant response rating, Morningglory [4, 13]: 0
- Plant response rating, Morningglory [4, 14]: 40
- Plant response rating, Pigweed [5, 11]: 100
- Plant response rating, Pigweed [5, 12]: 100
- Plant response rating, Pigweed [5, 13]: 60
- Plant response rating, Pigweed [5, 14]: 100
- Plant response rating, Velvetleaf [6, 11]: 70
- Plant response rating, Velvetleaf [6, 12]: 100
- Plant response rating, Velvetleaf [6, 13]: 30
- Plant response rating, Velvetleaf [6, 14]: 60
- Plant response rating, Wheat [7, 11]: 0
- Plant response rating, Wheat [7, 12]: 0
- Plant response rating, Wheat [7, 13]: 0
- Plant response rating, Wheat [7, 14]: 0
- Plant response rating, Flood, Barnyardgrass [8]: 75
- Plant response rating, Barnyardgrass [8, 15]: 65
- Plant response rating, Flood, Ducksalad [9]: 85
- Plant response rating, Ducksalad [9, 15]: 80
- Plant response rating, Flood, Rice (rice (Oryza sativa)): 0
- Plant response rating, Rice (rice (Oryza sativa); [15]): 0
- Plant response rating, Flood, Sedge, Umbrella [10]: 90
- Plant response rating, Sedge, Umbrella [10, 15]: 75

SMILES: CCCn1c(-c2ccco2)ncc(C(=O)C2=C(O)CCCC2=O)c1=O [Compound 110]
- Plant response rating, Barnyardgrass [1, 11]: 60
- Plant response rating, Barnyardgrass [1, 12]: 90
- Plant response rating, Barnyardgrass [1, 13]: 20
- Plant response rating, Barnyardgrass [1, 14]: 60
- Plant response rating, Corn (corn (Zea mays); [11]): 0
- Plant response rating, Corn (corn (Zea mays); [12]): 10
- Plant response rating, Corn (corn (Zea mays); [13]): 0
- Plant response rating, Corn (corn (Zea mays); [14]): 0
- Plant response rating, Foxtail, Giant [2, 11]: 10
- Plant response rating, Foxtail, Giant [2, 12]: 50
- Plant response rating, Foxtail, Giant [2, 13]: 0
- Plant response rating, Foxtail, Giant [2, 14]: 10
- Plant response rating, Crabgrass, Large [3, 11]: 80
- Plant response rating, Crabgrass, Large [3, 12]: 90
- Plant response rating, Crabgrass, Large [3, 13]: 40
- Plant response rating, Crabgrass, Large [3, 14]: 80
- Plant response rating, Morningglory [4, 11]: 90
- Plant response rating, Morningglory [4, 12]: 100
- Plant response rating, Morningglory [4, 13]: 40
- Plant response rating, Morningglory [4, 14]: 70
- Plant response rating, Pigweed [5, 11]: 90
- Plant response rating, Pigweed [5, 12]: 100
- Plant response rating, Pigweed [5, 13]: 80
- Plant response rating, Pigweed [5, 14]: 90
- Plant response rating, Velvetleaf [6, 11]: 90
- Plant response rating, Velvetleaf [6, 12]: 100
- Plant response rating, Velvetleaf [6, 13]: 60
- Plant response rating, Velvetleaf [6, 14]: 70
- Plant response rating, Wheat [7, 11]: 0
- Plant response rating, Wheat [7, 12]: 0
- Plant response rating, Wheat [7, 13]: 0
- Plant response rating, Wheat [7, 14]: 0
- Plant response rating, Flood, Barnyardgrass [8]: 40
- Plant response rating, Barnyardgrass [8, 15]: 0
- Plant response rating, Barnyardgrass [8, 16]: 20
- Barnyardgrass plant response rating [8]: 0
- Plant response rating, Flood, Ducksalad [9]: 75
- Plant response rating, Ducksalad [9, 15]: 40
- Plant response rating, Ducksalad [9, 16]: 75
- Ducksalad plant response rating [9]: 0
- Plant response rating, Flood, Rice (rice (Oryza sativa)): 30
- Plant response rating, Rice (rice (Oryza sativa); [15]): 0
- Plant response rating, Rice (rice (Oryza sativa); [16]): 30
- Rice plant response rating (rice (Oryza sativa)): 0
- Plant response rating, Flood, Sedge, Umbrella [10]: 75
- Plant response rating, Sedge, Umbrella [10, 15]: 35
- Plant response rating, Sedge, Umbrella [10, 16]: 50
- Sedge, Umbrella plant response rating [10]: 30

SMILES: Cc1cccc(-c2ncc(C(=O)C3=C(O)CCCC3=O)c(=O)n2-c2ccccc2C)c1 [Compound 210]
- Plant response rating, Barnyardgrass [1, 11]: 40
- Barnyardgrass plant response rating [1, 17]: 90
- Plant response rating, Barnyardgrass [1, 13]: 10
- Plant response rating, Barnyardgrass [1, 18]: 70
- Plant response rating, Corn (corn (Zea mays); [11]): 0
- Corn plant response rating (corn (Zea mays); [17]): 0
- Plant response rating, Corn (corn (Zea mays); [13]): 0
- Plant response rating, Corn (corn (Zea mays); [18]): 0
- Plant response rating, Foxtail, Giant [2, 11]: 10
- Foxtail, Giant plant response rating [2, 17]: 70
- Plant response rating, Foxtail, Giant [2, 13]: 20
- Plant response rating, Foxtail, Giant [2, 18]: 90
- Plant response rating, Crabgrass, Large [3, 11]: 10
- Crabgrass, Large plant response rating [3, 17]: 30
- Plant response rating, Crabgrass, Large [3, 13]: 10
- Plant response rating, Crabgrass, Large [3, 18]: 50
- Plant response rating, Morningglory [4, 11]: 50
- Morningglory plant response rating [4, 17]: 100
- Plant response rating, Morningglory [4, 13]: 0
- Plant response rating, Morningglory [4, 18]: 50
- Plant response rating, Pigweed [5, 11]: 90
- Pigweed plant response rating [5, 17]: 100
- Plant response rating, Pigweed [5, 13]: 60
- Plant response rating, Pigweed [5, 18]: 100
- Plant response rating, Velvetleaf [6, 11]: 70
- Velvetleaf plant response rating [6, 17]: 70
- Plant response rating, Velvetleaf [6, 13]: 40
- Plant response rating, Velvetleaf [6, 18]: 60
- Plant response rating, Wheat [7, 11]: 0
- Wheat plant response rating [7, 17]: 10
- Plant response rating, Wheat [7, 13]: 0
- Plant response rating, Wheat [7, 18]: 0
- Plant response rating, Flood, Barnyardgrass [8]: 40
- Plant response rating, Barnyardgrass [8, 15]: 0
- Plant response rating, Barnyardgrass [8, 16]: 20
- Barnyardgrass plant response rating [8]: 0
- Plant response rating, Flood, Ducksalad [9]: 90
- Plant response rating, Ducksalad [9, 15]: 85
- Plant response rating, Ducksalad [9, 16]: 90
- Ducksalad plant response rating [9]: 75
- Plant response rating, Flood, Rice (rice (Oryza sativa)): 25
- Plant response rating, Rice (rice (Oryza sativa); [15]): 0
- Plant response rating, Rice (rice (Oryza sativa); [16]): 20
- Rice plant response rating (rice (Oryza sativa)): 0
- Plant response rating, Flood, Sedge, Umbrella [10]: 80
- Plant response rating, Sedge, Umbrella [10, 15]: 75
- Plant response rating, Sedge, Umbrella [10, 16]: 75
- Sedge, Umbrella plant response rating [10]: 50
